Values joined by “and” are separate entries in the source; they are usually repeats but may differ in a detail not shown here. Equal values may be shown once.
Assays:
[1] = tested on: tumor tissue cell, NSCLC; test: 3D drug susceptibility detection (three-dimensional co-culture system), NSCLC patient; assay type: cell-based, human
Excerpt: A third exemplary embodiment is shown below. • 3D drug susceptibility detection result

[2] = tested on: tumor tissue cell, Liver cancer; test: 3D drug susceptibility detection (three-dimensional co-culture system), liver cancer patient; assay type: cell-based, human; conditions: person
Excerpt: A second exemplary embodiment is shown below. • 3D drug susceptibility detection result

[3] = tested on: tumor tissue cell, Lung Tumor; test: 3D drug susceptibility detection (three-dimensional co-culture system), lung tumor patient; assay type: cell-based, human; conditions: serial No. 0018
Excerpt: A fourth exemplary embodiment is shown below. • 3D drug susceptibility detection result

[4] = tested on: human hepatocellular carcinoma cells HepG2; test: CellTiter-Glo cell viability, 72 hours; assay type: cell-based; conditions: duplicate wells
Excerpt: (§1) A first exemplary embodiment is shown a detection of the angstrom silver on a proliferation influence of human non-small cell lung cancer cells A549 and human hepatocellular carcinoma cells HepG2.
(§2) Reagents and consumables shown below: 1. HepG2, provided by HD Biosciences (Shanghai) Co., Ltd., and passed a mycoplasma detection; 2, F 12K culture medium, American Gibco, Art. No.: 21127-022; 3. EMEM culture medium, American ATCC, Art. No.: 30-2003; 4. Fetal bovine serum (FBS), American Hyclone, Art. No.: CH30160.03; 5. Penicillin-streptomycin liquid, American Invitrogen, Art. No.: CH15140-122; 6. DG-5 (25 Ang) and DG-5 solvents, DG-6 (25 Ang) and DG-6 solvents respectively provided by Shenzhen AMCAN Medical Biotechnology Limited; 7. […] DMSO, American Sigma, Art. No.: D4540; 9. 96-well cell culture plate, American Corning, Art. No.: 3610; 10. CellTiter-Glo Luminescent Cell Viability Assay, American Promega, Art. No.: G7571; 11. Plate reader, American Perkin Elmer, EnVision Multilabel Plate Reader.
(§3) Cell culture medium: 1. A549 culture medium: including 10% fetal bovine serum and F 12K culture medium with 100 U penicillin and 100 μg/mL streptomycin; 2. HepG2 culture medium: including 10% fetal bovine serum and EMEM culture medium with 100 U penicillin and 100 μg/mL streptomycin.
(§4) 3. Only before starting an experiment, in the sterile condition, the prepared dg-5 gradient concentration solution is diluted 2 times by full cell culture medium. At this time, the gradient concentration of a compound to be measured includes 150 ppm, 15 ppm, 1.5 ppm, 0.15 ppm and 0.015 ppm, which is a 2-by-compound solution to be used to treat cells.
(§5) 4. Only before starting the experiment, in the sterile condition, the prepared dg-5 gradient concentration solution was diluted 100 times by the full cell culture medium. At this time, the gradient concentration of the compound to be measured includes 2 μM, 200 nM, 20 nM, 2 nM and 0.2 nM, which is a 2-by-compound solution to be used to treat cells.
(§6) 1. The cell is inoculated in a 96-well cell culture plate the day before the treatment of the compound, while an inoculation density is shown in the experimental design above, and an inoculation volume was 100 μL per hole.
(§7) 2. The next day, the prepared 2-by-compound solution is added to the 96-well cell culture plate according to an arrangement diagram of the compound, and each hole is added to 100 μL.
(§8) 3. Gently oscillating the 96-well cell culture plate and placing it in a 37° C. incubator to continue cultivating for 72 hours.
(§9) 4. After reaching a designated incubation time, a prepared reagent is added to the 96-well cell culture plate according to a CellTiterGlo's reagent specification, and then it is fully blended under a room temperature, finally avoid light incubation for 10 minutes.
(§10) 5. Placing the 96-well cell culture plate in a plate reader to analyze it, and setting it to read chemical luminescence and record data.
(§11) Readout in each hole needs to be converted to a cell viability. The cell viability can be calculated by the following formula: […]

[5] = tested on: human non-small cell lung cancer cells A549; test: CellTiter-Glo cell viability, 72 hours; assay type: cell-based; conditions: duplicate wells
Excerpt: as §1, §2, §3, §4, §5, §6, §7, §8, §9, §10, §11

SMILES | drug efficacy, 3D drug susceptibility detection ([1]; serial No. 0015) | drug efficacy, 3D drug susceptibility detection [2] | drug efficacy, 3D drug susceptibility detection [3] | also measured
Nc1nc2[nH]cc(CCc3ccc(C(=O)N[C@@H](CCC(=O)O)C(=O)O)cc3)c2c(=O)[nH]1 [pemetrexed] | worst group of efficacy | Ineffective | worst group of efficacy | drug efficacy, 3D drug susceptibility detection ([1]; serial No. 0015, listed as permetrexed): very poor efficacy
COc1cc2ncnc(Nc3ccc(F)c(Cl)c3)c2cc1OCCCN1CCOCC1 [gefitinib] | worst group of efficacy |  | worst group of efficacy | 
O=c1[nH]cc(F)c(=O)[nH]1 [5-fluorouracil] | worst group of efficacy | Ineffective | worst group of efficacy | 
N.N.O=C([O-])C1(C(=O)[O-])CCC1.[Pt+2] [carboplatin] |  | Ineffective |  | 
C=CC(=O)Nc1cc(Nc2nccc(-c3cn(C)c4ccccc34)n2)c(OC)cc1N(C)CCN(C)C [AZD9291] | best group of efficacy |  | best group of efficacy | 
CNC(=O)c1cc(Oc2ccc(NC(=O)Nc3ccc(Cl)c(C(F)(F)F)c3)cc2)ccn1 [sorafenib] |  | Ineffective |  | 
Nc1ccn([C@@H]2O[C@H](CO)[C@@H](O)C2(F)F)c(=O)n1 [gemcitabine] | best group of efficacy |  |  | 
C#Cc1cccc(Nc2ncnc3cc(OCCOC)c(OCCOC)cc23)c1 [erlotinib] | worst group of efficacy |  | worst group of efficacy | 
CN[C@@H]1C[C@H]2O[C@@](C)([C@@H]1OC)n1c3ccccc3c3c4c(c5c6ccccc6n2c5c31)C(=O)NC4 [STSP] |  |  |  | Percentage of cell growth ([4]; HepG2, 0.1 nM): 109.0% and 103.4%; Percentage of cell growth ([4]; HepG2, 1 nM): 88.4% and 86.2%; Percentage of cell growth ([4]; HepG2, 100 nM): 17.5% and 22.2%; Percentage of cell growth ([4]; HepG2, 1000 nM): 9.7% and 11.2%; Percentage of cell growth ([5]; A549, 0.1 nM): 124.6% and 126.9%; Percentage of cell growth ([5]; A549, 1 nM): 99.8% and 99.2%; Percentage of cell growth ([5]; A549, 10 nM): 68.8% and 68.5%; Percentage of cell growth ([5]; A549, 100 nM): 28.5%
CC(=O)O[C@@]12CO[C@@H]1C[C@H](O)[C@@]1(C)C(=O)[C@H](O)C3=C(C)[C@@H](OC(=O)[C@H](O)[C@@H](NC(=O)OC(C)(C)C)c4ccccc4)C[C@@](O)([C@@H](OC(=O)c4ccccc4)[C@H]21)C3(C)C [docetaxel] |  | second efficacy |  | 
CC(=O)O[C@H]1C(=O)[C@@]2(C)[C@H]([C@H](OC(=O)c3ccccc3)[C@]3(O)C[C@H](OC(=O)[C@H](O)[C@@H](NC(=O)c4ccccc4)c4ccccc4)C(C)=C1C3(C)C)[C@]1(OC(C)=O)CO[C@@H]1C[C@@H]2O [paclitaxel] |  | second efficacy |  | 
Cc1ccc(NC(=O)c2ccc(CN3CCN(C)CC3)cc2)cc1Nc1nccc(-c2cccnc2)n1 [imatinib] |  | better |  | 

Source: US20200038438A1, “ANGSTROM SILVER INJECTION FOR CANCER INHIBITION, PREPARATION METHOD AND APPLICATION THEREOF” (Shenzhen AMCAN Medical Biotechnology Limited, priority 2018, published 2020)
